Data from ChEMBL document CHEMBL1201862, “PubChem BioAssay data set” (2004).
Activity calls are given as the source filed them.

Experiments:
Aurora kinase A = Aurora kinase A (Homo sapiens, UniProt O14965); assay type: functional;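 also: value from the Navigating the Kinome kinase panel profiling, panel entry STK6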
Aurora kinase B = Aurora kinase B (Homo sapiens, UniProt Q96GD4); assay type: functional
[1] = biological target: Cyclin-dependent kinase 19 (Homo sapiens, UniProt Q9BWU1); test: Navigating the Kinome. Panel member name: CDC2L6; assay type: functional
Cyclin-dependent kinase 19, sequence (Q9BWU1 whole entry): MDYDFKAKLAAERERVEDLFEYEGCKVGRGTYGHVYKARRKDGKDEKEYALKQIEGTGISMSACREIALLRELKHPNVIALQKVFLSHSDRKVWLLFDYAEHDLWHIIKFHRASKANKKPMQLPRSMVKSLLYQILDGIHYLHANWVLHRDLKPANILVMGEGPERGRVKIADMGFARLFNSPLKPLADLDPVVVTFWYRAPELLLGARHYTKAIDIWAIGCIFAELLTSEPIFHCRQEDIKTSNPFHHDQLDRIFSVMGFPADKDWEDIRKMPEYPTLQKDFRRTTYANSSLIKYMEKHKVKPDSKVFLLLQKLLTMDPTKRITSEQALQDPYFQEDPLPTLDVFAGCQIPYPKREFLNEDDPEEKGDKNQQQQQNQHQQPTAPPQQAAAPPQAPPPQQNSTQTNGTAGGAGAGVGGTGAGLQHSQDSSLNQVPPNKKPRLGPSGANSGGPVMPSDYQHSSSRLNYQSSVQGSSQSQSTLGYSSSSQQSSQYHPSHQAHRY

[2] = biological target: Glucose-6-phosphate 1-dehydrogenase (Homo sapiens, UniProt P11413); test: human G6PD enzyme inhibitors, dose response, selectivity assay for P. falciparum G6PD inhibitor project, biochemical, fluorescence (AID 504792); assay type: functional
Glucose-6-phosphate 1-dehydrogenase, sequence (P11413 whole entry, the tested form may be a part): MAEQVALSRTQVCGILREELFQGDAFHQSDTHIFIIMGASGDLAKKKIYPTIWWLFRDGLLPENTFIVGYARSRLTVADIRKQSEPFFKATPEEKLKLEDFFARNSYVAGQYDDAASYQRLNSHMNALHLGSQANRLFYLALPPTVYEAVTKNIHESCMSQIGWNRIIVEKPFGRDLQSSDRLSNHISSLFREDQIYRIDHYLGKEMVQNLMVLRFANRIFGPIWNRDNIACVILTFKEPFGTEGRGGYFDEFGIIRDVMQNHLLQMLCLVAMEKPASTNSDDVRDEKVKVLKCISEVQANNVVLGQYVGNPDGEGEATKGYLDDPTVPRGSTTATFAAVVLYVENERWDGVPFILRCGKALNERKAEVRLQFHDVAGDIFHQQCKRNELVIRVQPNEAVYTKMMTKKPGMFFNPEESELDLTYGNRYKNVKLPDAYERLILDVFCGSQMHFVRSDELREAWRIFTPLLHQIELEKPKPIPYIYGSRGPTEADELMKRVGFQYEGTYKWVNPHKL

CHO = test: cytotoxicity in TLR9-MyD88 CHO cells, dose response, cytotoxicity control for TLR9-MyD88 binding inhibitor project, cell-based, luminescence (AID 588339); assay type: functional, hamster; details: Cricetulus griseus;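 also: CHO cells stably coexpressing TLR9 and MyD88 fusions from primary screen; compound exposure lasted 48 hours before viability readout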
Beta Lactamase = Beta Lactamase (Pseudomonas aeruginosa, UniProt Q932Y6); test: beta-lactamase reporter inhibitor potency, dose response, artefact control for TLR9-MyD88 binding inhibitor project, BLA reporter cells, FRET fluorescence (AID 588341); assay type: cell-based;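 also: cell based assay in CHO-K1 cells stably expressing beta-lactamase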
[3] = biological target: V-type proton ATPase subunit c' (Saccharomyces cerevisiae S288c, UniProt P32842); test: Dose Response of Small Molecules that Regulate V-ATPase Proton Transport in Yeast using pHLuorin, Cherry Pick 2.; assay type: functional; details: read-out: EC50_MICROM
V-type proton ATPase subunit c', sequence (P32842 whole entry): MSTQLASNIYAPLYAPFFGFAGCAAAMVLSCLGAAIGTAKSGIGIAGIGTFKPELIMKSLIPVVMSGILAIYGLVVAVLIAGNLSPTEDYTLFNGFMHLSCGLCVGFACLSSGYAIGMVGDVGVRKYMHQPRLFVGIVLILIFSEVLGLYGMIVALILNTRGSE

[4] = inhibitors of intracellular T. cruzi replication, confirmation, NIH3T3 host cells, beta-gal luminescence (AID 2044); assay type: functional, cell-based;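 also: intracellular parasites grown in NIH/3T3 mouse fibroblasts as host cells; luminescent beta-galactosidase reporter signal from transgenic T. cruzi replicating inside host cells; inhibitors lower the luminescence signal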
[5] = growth suppression of PTEN-null colon cells, dose response, cell-based, HCT116 PTEN knockout (AID 1047); assay type: functional;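 also: HCT116 colon tumor cells with PTEN knocked out; cells exposed to compound for 60 hours before readout; potency for loss of cell viability measured by luminescence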
[6] = biological target: Protein-tyrosine kinase 2-beta (Homo sapiens, UniProt Q14289);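 also: potency of inhibitors of PYK2 kinase phosphorylation of poly-GT substrate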
Protein-tyrosine kinase 2-beta, sequence (Q14289 whole entry): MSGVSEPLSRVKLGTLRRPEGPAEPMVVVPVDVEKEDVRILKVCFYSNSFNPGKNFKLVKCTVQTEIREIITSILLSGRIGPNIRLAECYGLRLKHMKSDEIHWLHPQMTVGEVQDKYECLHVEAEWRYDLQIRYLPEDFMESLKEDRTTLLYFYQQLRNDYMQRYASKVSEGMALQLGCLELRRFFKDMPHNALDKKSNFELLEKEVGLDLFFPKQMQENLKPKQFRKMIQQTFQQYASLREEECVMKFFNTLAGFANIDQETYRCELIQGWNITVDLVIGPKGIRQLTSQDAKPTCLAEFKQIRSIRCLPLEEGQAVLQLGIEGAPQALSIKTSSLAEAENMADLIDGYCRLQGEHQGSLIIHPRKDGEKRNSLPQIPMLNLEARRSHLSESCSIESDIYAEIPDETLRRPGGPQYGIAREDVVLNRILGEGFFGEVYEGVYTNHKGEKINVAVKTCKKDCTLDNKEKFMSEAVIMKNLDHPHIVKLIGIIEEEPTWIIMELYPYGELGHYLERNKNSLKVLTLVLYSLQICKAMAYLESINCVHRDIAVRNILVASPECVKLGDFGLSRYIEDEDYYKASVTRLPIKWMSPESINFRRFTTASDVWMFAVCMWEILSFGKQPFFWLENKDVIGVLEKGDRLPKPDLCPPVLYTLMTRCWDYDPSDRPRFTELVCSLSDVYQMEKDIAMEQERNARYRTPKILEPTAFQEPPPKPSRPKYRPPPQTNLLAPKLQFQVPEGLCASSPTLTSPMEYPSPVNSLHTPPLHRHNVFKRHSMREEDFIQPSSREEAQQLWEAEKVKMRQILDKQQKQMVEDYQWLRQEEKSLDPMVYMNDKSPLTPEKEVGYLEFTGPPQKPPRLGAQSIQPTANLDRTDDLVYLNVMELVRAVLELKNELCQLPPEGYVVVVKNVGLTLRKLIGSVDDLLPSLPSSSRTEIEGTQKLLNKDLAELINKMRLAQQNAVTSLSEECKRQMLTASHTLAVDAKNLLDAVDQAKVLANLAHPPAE

[7] = cytotoxicity toward NIH3T3 fibroblasts, dose response, counter-screen, cell-based, ATP luminescence, mouse fibroblasts (AID 2010); assay type: functional;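 also: cells exposed to compound for about 90 hours before reading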
[8] = growth suppression of beta-catenin-knockout colon cells, dose response, cell-based, HCT116, human colon tumor (AID 1045); assay type: functional;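 also: HCT116 colon tumor cells with beta catenin knocked out; cells exposed to compound for 60 hours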
[9] = biological target: T1, Mannose-6-phosphate isomerase (Homo sapiens, UniProt P34949); test: human PMI inhibitors, high substrate, primary screen, biochemical, fluorescence intensity, high mannose 6-phosphate (AID 1220)
T1 sequence (P34949 whole entry): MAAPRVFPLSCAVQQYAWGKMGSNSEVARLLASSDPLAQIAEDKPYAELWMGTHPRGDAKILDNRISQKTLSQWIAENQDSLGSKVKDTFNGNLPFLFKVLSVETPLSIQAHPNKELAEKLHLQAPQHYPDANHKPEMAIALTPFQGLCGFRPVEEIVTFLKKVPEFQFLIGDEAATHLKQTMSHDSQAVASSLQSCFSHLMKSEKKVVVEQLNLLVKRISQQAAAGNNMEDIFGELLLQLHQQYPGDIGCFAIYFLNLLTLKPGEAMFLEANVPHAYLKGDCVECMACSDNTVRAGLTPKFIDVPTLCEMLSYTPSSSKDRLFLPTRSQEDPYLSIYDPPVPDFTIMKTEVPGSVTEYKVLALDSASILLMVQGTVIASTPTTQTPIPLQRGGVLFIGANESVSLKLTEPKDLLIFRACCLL

Hexokinase HKDC1 = biological target: T2, Hexokinase HKDC1 (Homo sapiens, UniProt Q2TB90); test: HKDC1 hexokinase inhibitors, dose response, biochemical, W721R variant (AID 504729); assay type: functional
T2 sequence (Q2TB90 whole entry): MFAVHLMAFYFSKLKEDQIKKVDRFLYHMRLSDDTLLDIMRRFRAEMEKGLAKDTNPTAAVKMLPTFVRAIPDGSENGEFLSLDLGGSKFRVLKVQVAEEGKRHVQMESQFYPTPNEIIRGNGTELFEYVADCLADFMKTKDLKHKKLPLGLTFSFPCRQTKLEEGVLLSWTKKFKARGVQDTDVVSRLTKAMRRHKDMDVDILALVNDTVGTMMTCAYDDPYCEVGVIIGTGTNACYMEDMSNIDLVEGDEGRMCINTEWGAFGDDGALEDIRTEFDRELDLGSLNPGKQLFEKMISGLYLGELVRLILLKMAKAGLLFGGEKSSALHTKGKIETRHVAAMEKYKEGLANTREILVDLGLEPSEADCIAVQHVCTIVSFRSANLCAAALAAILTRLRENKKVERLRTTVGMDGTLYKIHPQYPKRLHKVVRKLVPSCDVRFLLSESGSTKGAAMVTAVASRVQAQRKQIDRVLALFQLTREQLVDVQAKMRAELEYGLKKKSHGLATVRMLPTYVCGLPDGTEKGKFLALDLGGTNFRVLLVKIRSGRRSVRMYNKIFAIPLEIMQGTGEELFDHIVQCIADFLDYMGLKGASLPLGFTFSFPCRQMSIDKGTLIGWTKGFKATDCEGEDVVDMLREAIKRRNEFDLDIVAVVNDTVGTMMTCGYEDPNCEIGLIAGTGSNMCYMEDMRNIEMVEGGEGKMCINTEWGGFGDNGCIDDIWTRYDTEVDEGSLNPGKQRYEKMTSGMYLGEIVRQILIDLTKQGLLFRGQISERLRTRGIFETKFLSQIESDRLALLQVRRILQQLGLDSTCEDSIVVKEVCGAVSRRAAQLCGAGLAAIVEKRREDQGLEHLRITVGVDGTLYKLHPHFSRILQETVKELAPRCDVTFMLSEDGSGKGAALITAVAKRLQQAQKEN

Vero [10] = test: Vero cell cytotoxicity, cytotoxicity control for flavivirus capping enzyme inhibitors (AID 588742); assay type: functional; details: Chlorocebus sabaeus
INS1 = test: beta cell apoptosis inhibitors, cytokine rescue, dose response, luminescence, retest (AID 449756); assay type: functional, cell-based; details: Rattus norvegicus;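 also: cell death triggered by IL-1 beta plus TNF-alpha plus IFN-gamma mixture; protective hits raise ATP signal compared with cytokine alone wells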
Genome polyprotein = Genome polyprotein (dengue virus type 2, UniProt P29990); test: Dengue-2 NS5 methyltransferase inhibitors, primary screen, biochemical, confirmation dose response (AID 588689); assay type: functional
[11] = biological target: Hepatocyte nuclear factor 4-alpha (Homo sapiens, UniProt P41235); assay type: functional, cell-based;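 also: biochemical luminescence-based dose-response counterscreen measuring inhibition of HNF4 dimerization, run alongside a screen for blockers of ABHD5–perilipin-5 interaction; split luciferase complementation of HNF4 fusion proteins in cell lysate measuring dimerization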
Hepatocyte nuclear factor 4-alpha, sequence (P41235 whole entry, the tested form may be a part): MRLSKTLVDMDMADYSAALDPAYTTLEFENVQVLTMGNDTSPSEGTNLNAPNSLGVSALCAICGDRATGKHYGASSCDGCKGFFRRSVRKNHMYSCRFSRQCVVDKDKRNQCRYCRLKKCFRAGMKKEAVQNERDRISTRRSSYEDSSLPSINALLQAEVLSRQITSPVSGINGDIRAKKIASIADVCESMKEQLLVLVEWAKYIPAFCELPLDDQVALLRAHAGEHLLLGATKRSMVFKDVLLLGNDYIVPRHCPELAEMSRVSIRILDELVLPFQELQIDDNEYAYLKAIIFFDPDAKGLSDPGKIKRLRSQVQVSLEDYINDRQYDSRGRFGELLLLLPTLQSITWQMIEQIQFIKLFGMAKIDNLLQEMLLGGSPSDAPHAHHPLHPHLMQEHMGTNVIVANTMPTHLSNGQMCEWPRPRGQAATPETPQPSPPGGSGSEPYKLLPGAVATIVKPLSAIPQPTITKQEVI

[12] = biological target: T3, Delta-type opioid receptor (Homo sapiens, UniProt P41143); test: HTS Image-Based Screen for Antagonists of the DOR Receptor. [Related pubchem assays (depositor defined):AID1777, AID1785, AID1786, AID2133]; assay type: functional
T3 sequence (P41143 whole entry): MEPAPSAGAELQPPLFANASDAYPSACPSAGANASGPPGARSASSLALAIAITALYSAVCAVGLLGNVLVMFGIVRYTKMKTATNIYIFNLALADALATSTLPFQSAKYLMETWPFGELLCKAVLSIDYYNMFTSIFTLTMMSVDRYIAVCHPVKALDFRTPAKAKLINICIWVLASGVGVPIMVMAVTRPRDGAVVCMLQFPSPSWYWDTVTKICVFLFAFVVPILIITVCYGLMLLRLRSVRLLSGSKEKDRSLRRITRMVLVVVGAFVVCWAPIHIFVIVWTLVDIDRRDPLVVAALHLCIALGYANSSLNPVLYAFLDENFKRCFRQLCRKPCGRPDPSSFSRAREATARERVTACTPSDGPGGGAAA

Mu-type opioid receptor = Mu-type opioid receptor (Homo sapiens, UniProt P35372); test: HTS Image-Based Screen for Agonists of the MOR Receptor. [Related pubchem assays (depositor defined):AID1777, AID1785, AID1786, AID2133]; assay type: functional;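 also: imaging of beta-arrestin GFP recruitment into spots after receptor activation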
Mu-type opioid receptor, sequence (P35372 whole entry): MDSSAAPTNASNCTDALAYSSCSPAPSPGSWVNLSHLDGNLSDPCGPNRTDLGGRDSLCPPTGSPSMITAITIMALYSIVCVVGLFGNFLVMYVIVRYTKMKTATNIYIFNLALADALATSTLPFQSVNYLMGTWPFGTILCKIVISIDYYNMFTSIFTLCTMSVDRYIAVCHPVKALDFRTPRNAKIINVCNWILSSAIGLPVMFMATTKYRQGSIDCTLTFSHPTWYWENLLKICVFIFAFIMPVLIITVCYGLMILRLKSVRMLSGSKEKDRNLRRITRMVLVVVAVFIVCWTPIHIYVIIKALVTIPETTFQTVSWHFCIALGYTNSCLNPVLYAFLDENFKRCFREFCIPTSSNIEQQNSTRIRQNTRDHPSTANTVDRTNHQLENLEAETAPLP

[13] = biological target: T3, Delta-type opioid receptor; test: HTS Image-Based Screen for Agonists of the DOR Receptor. [Related pubchem assays (depositor defined):AID1777, AID1786, AID2133]; assay type: functional
[14] = cytotoxicity in HPDE-C7 cells, cell-based, fluorescence, HTS (AID 430); assay type: functional; details: Homo sapiens
[15] = cytotoxicity in KRAS-transformed pancreatic duct cells, primary screen, cell-based, fluorescence, HTS (AID 431); assay type: functional; details: Homo sapiens;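 also: cell line used: HPDE-C7K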
[16] = biological target: T4, Kappa-type opioid receptor (Homo sapiens, UniProt P41145); assay type: functional
T4 sequence (P41145 whole entry): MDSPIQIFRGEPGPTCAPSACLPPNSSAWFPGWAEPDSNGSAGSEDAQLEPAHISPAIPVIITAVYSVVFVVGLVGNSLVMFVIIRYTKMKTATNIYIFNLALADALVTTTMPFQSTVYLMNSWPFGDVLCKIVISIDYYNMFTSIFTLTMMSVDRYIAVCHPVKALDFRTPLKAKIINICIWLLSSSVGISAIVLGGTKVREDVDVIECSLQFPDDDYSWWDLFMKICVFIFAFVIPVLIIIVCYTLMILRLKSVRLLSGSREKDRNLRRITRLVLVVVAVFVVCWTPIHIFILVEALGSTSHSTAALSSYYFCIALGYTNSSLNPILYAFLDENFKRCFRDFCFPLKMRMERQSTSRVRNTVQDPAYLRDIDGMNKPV

Beta-galactosidase = Beta-galactosidase (Escherichia coli, UniProt Q8VNN2); assay type: functional
[17] = biological target: T4, Kappa-type opioid receptor; assay type: functional; remark: listed apart in the source
[18] = biological target: Heat shock protein HSP 90-alpha (Homo sapiens, UniProt P07900); assay type: functional, organism-based
HSP90 = HSP90 (Plasmodium falciparum 3D7, UniProt Q8IL32); assay type: functional, organism-based
Vero [19] = test: cells; assay type: functional; details: Chlorocebus sabaeus
[20] = HeLa 2N DNA content increase, dose response, cell-based, IC50 (AID 1117349); assay type: functional
[21] = Concentration-dependent survival of SW480 colon cancer line, luminescence detection with CellTiter-Glo, half-maximal inhibitory concentration (AID 1117338); assay type: functional
[22] = cytotoxicity toward HCT116 cells – cell-based, CellTiter-Glo luminescence, IC50, dose response (AID 1117332); assay type: functional; details: HCT-116
[23] = SNU-C1 cell viability reduction, dose response, CellTiter-Glo luminescence (AID 1117323); assay type: functional, cell-based
[24] = cytotoxicity toward Colo320 cells – cell-based, CellTiter-Glo luminescence, IC50, dose response (AID 1117334); assay type: functional; details: COLO 320
[25] = HeLa 4N DNA content increase, dose response, cell-based, IC50 (AID 1117351); assay type: functional
[26] = cytotoxicity toward HT-29 cells – cell-based, CellTiter-Glo luminescence, IC50, dose response (AID 1117330); assay type: functional
[27] = CellTiter-Glo luminescent dose response of DLD-1 viability loss (AID 1117352); assay type: functional
Melanocortin receptor 4 = Melanocortin receptor 4 (Homo sapiens, UniProt P32245); test: MC4R antagonist potency on cAMP, dose response, cell-based, TR-FRET, biased antagonists (AID 602298); assay type: functional;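 also: antagonist potency against agonist-stimulated cAMP production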
Melanocortin receptor 4, sequence (P32245 whole entry): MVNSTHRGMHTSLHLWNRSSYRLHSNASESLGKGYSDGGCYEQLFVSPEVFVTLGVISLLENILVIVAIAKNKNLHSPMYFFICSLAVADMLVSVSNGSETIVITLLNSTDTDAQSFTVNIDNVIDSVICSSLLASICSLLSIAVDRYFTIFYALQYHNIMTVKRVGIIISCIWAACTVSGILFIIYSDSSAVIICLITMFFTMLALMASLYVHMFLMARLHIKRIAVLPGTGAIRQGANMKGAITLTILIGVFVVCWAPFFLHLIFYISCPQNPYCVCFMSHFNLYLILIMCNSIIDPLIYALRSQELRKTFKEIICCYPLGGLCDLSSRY

[28] = nonselective inhibitors of cellular cAMP signaling, dose response, counter-screen for MC4R biased antagonist project, cell-based, TR-FRET cAMP detection (AID 602305); assay type: functional;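 also: U2OS cells stimulated with forskolin near its EC80 as the cAMP inducer; potency is for inhibition of forskolin-stimulated cAMP signaling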

Aurora kinase B, sequence (Q96GD4 whole entry): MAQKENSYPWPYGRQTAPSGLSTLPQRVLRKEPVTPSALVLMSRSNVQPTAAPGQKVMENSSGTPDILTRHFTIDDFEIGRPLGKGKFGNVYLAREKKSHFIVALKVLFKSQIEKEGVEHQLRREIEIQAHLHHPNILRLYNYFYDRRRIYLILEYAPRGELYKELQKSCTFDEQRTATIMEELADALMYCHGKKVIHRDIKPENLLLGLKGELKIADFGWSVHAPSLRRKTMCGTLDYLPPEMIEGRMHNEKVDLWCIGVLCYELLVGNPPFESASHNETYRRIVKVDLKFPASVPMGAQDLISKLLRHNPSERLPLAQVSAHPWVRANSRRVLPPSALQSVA
Aurora kinase A, sequence (O14965 whole entry): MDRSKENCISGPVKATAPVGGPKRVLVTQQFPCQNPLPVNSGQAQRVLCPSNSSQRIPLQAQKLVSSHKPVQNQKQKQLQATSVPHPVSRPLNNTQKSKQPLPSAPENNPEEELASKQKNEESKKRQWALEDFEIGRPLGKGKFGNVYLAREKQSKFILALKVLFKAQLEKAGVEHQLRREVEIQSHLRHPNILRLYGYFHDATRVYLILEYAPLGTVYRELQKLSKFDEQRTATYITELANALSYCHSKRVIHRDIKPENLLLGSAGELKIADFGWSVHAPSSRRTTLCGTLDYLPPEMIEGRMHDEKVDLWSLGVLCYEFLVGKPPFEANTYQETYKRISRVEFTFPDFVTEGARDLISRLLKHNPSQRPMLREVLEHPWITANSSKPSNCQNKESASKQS

SMILES: O=C(O)c1ccccc1Nc1nc(Nc2cccc(O)c2)ncc1F
- Ki (Aurora kinase A): 0.00501 µM (active)
- Ki (Aurora kinase B): 0.002 µM (active)
- Ki [1]: 0.0794 µM (active)

SMILES: Cc1ccc(S(=O)(=O)C=CS(=O)(=O)c2ccc(C)cc2)cc1
- IC50 [2]: > 80 µM (inactive)
- IC50 (CHO): 2.71 µM (active)
- IC50 (Beta Lactamase): 13.6 µM (inactive)
- EC50 [3]: 3.91 µM (active)

SMILES: O=C1C(=O)c2c(C(=O)c3ccccc3)coc2-c2ccccc21
- EC50 [4]: 3.54 µM (active)
- EC50 [5]: 8.45 µM (active)
- IC50 [6]: > 69.5 µM (not active)
- EC50 [7]: 9.47 µM (active)
- EC50 [8]: 8.33 µM (active)
- IC50 [9]: 9 µM (active)
- IC50 (Hexokinase HKDC1): 33.4 µM (inactive)
- CC50 (Vero [10]): 15.1 µM (active)
- AC50 (INS1): 7.82 µM (active)
- IC50 (Genome polyprotein): 82.3 µM (active)
- IC50 [11]: 3.45 µM (active)

SMILES: Oc1c(I)cc(Cl)c2cccnc12 [CLIOQUINOL]
- IC50 [12]: > 32 µM (inactive)
- EC50 (Mu-type opioid receptor): > 32 µM (inactive)
- EC50 [13]: > 32 µM (inactive)
- EC50 [14]: 6.3 µM (active)
- EC50 [15]: 2.92 µM (active)
- EC50 [5]: 20.4 µM (active)
- IC50 [16]: 5.79 µM (active)
- EC50 (Beta-galactosidase): > 31.5 µM (inactive)
- IC50 [17]: > 32 µM
- AC50 [18]: 1.16 µM (active)
- AC50 (HSP90): 0.619 µM (active)
- CC50 (Vero [19]): > 25 µM (active)
- IC50 [20]: > 10 µM (inactive)
- IC50 [21]: 0.441 µM (active)
- IC50 [22]: 0.392 µM (active)
- IC50 [23]: 0.475 µM (active)
- IC50 [24]: 0.586 µM (active)
- IC50 [25]: > 10 µM (inactive)
- IC50 [26]: 18.6 µM (inactive)
- IC50 [27]: 0.345 µM (active)

SMILES: Cc1nc2ccc(NC(=O)c3ccc(Cl)c([N+](=O)[O-])c3)cc2s1
- IC50 (Melanocortin receptor 4): > 64.6 µM (inactive)
- IC50 [28]: > 64.6 µM (inactive)
